The values that follow are results of earlier work, collected in patent US7897154B2, “Dermal drops” (ABR, LLC, priority 2006, dated 2011).

For data set [1] the following is noted: animal models of non-insulin-dependent diabetes.
For data set [2], the system named is H. ras transformed rat2 cells.

Consider dehydrotrametenolic acid [DHTA], for which the pre-adipocyte differentiation result in the data set with pre-adipocyte was “induce pre-adipocyte differentiation”. For the same substance, the sensitization to insulin result in data set [1] is given as “sensitize animal models of non-insulin-dependent diabetes to insulin”. Also, in data set [2], the apoptosis result is reported as “induce apoptosis” and the growth result is on record as “inhibit the growth of H. ras”.
